Among the data in ChEMBL document CHEMBL1156829 (Proc Natl Acad Sci U S A, 2008) are EC50 and CC50 values, retold here.

Bounds are passed on as bounds.

In data set [1] the test system is Plasmodium falciparum. Kind of data set: NOVARTIS: Inhibition of Plasmodium falciparum 3D7 (drug-susceptible) proliferation in erythrocyte-based infection assay. The note with it: Plasmodium falciparum, 3D7. Format: functional, organism-based.
Data set [2] is described as follows: NOVARTIS: Cytotoxicity against human hepatocellular carcinoma cell line (Huh7). To be noted: Huh7 cells (hepatocellular carcinoma cell line). It is filed as toxicity, cell-based, Huh-7.
Data set [3] concerns Plasmodium falciparum. In words: NOVARTIS: Inhibition of Plasmodium falciparum W2 (drug-resistant) proliferation in erythrocyte-based infection assay. It is filed as functional, organism-based. The note with it: Plasmodium falciparum, W2; read-out: EC50.

The term EC50 denotes the concentration giving half of the maximal effect. For orientation: CC50 means the concentration giving 50% cytotoxicity. Read a high CC50 as better tolerance by the cells. In the case of `Cc1ccnc(NC(c2cccc(Cl)c2Cl)c2ccc3cccnc3c2O)c1` (configuration not stated), the EC50 in data set [1] was found to be 0.152 µM; in data set [3], 0.144 µM. In addition, the CC50 in data set [2] was > 49 µM.
Turning to `CN(C)Cc1c(O)ccc2oc(Cc3ccccc3)cc12`, the EC50 was 0.219 µM in data set [1] and 0.059 µM in data set [3]. In data set [2], this compound yielded a CC50 of 20.1 µM.
The corresponding values for `CCN1CCN(Cc2c(O)ccc3c(=O)c(Oc4cc(C)cc(C)c4)c(C(F)(F)F)oc23)CC1` are 3.63 µM, 0.296 µM and > 100 µM.
The like results for `Nc1c(Cl)c(Cl)nc(C(Cl)(Cl)Cl)c1Cl` were, in that order, 0.448 µM, 0.286 µM and > 100 µM.
The like results for `CC(=O)Nc1nc(C)c(-c2csc(Nc3ccc(Cl)cc3)n2)s1` were, in that order, 0.14 µM, 0.0978 µM and 34.4 µM.
In the case of `COC(=O)c1ccc(C2C3=C(O)CC(c4ccc(F)cc4)CC3=Nc3ccccc3N2C(=O)c2ccccc2)cc1` (configuration not stated), the EC50 is 0.332 µM in data set [1] and 0.29 µM in data set [3]. In addition, the CC50 in data set [2] was > 100 µM.
For the compound `CC(Cl)=CCc1c(C)nc2c(ccc3ccccc32)c1O`, the EC50 in data set [1] turned out to be 0.23 µM; in data set [3], 0.299 µM. For the same compound, in data set [2], the CC50 was > 100 µM.
Regarding `COc1cc(C(=O)N2N=C(c3c(-c4ccccc4)c4cc(Br)ccc4[nH]c3=O)CC2c2cccc([N+](=O)[O-])c2)cc(OC)c1OC` (configuration not stated), the EC50 amounted to 0.362 µM in data set [1] and 0.288 µM in data set [3]. Further, the CC50 in data set [2] was > 100 µM.
With `C(=NNc1nc2ccccc2[nH]1)c1ccc2c(c1)OCO2`, the EC50 amounted to 0.184 µM in data set [1] and 0.289 µM in data set [3]. Further, the CC50 in data set [2] is > 100 µM.
The like results for `CCOC(=O)C1=C(C)NC2=C(C(=O)CC(C)(C)C2)C1c1cc(I)sc1SC` (configuration not stated) were, in that order, 0.798 µM, 0.287 µM and > 100 µM.
Turning to `O=C(/C=C/c1c[nH]cn1)N1CCC(n2c(CC3CCCC3)nc3cccnc32)CC1`, the EC50 is > 1.67 µM in data set [1] and 0.0287 µM in data set [3]. In addition, the CC50 in data set [2] was > 10 µM.
The like results for `Cc1ccn2c(NC(C)(C)CC(C)(C)C)c(-c3ccccc3OC(=O)N(C)C)nc2c1` were, in that order, 0.576 µM, 0.0285 µM and > 10 µM.
As for `O=C(Nc1ccccc1Cl)c1cc2ccccc2cc1O`, the EC50 in data set [1] amounted to 0.327 µM; in data set [3] it was 0.298 µM. The CC50 in data set [2] was > 100 µM.
The corresponding values for `COc1ccc(-c2nc(CN3CCCCC3)ccc2O)cc1` are 0.131 µM, 0.03 µM and > 10 µM.
The like results for `CC(C)(C)NCC(O)Cn1c2ccc(Cl)cc2c2cc(Cl)ccc21` (configuration not stated) were, in that order, 0.258 µM, 0.0563 µM and 18.8 µM.
The corresponding values for `CCC(C(=O)NCc1ccc(OC)c(OC)c1)n1nc(C)c2c(C)n(-c3ccc(C)cc3)nc2c1=O` (configuration not stated) are 0.273 µM, 0.299 µM and > 100 µM.
For `CC(C)(C)CC(C)(C)Nc1c(-c2ccccc2OC(=O)C2CCCC2)nc2ccccn12`, the concentration giving a half-maximal response (EC50) in data set [1] was found to be 2.1 µM; in data set [3] it was 0.0299 µM. For the same compound, the CC50 in data set [2] is > 10 µM.
Regarding `O=C(c1ccc2nc(N3CCCCC3)sc2c1)N1CCN(Cc2ccc3c(c2)OCO3)CC1`, the EC50 was 0.407 µM in data set [1] and 0.298 µM in data set [3]. Further, in data set [2], the cytotoxic concentration (CC50) was > 100 µM.
The like results for `COc1ccc(-n2nc3c(c2NC(=O)C=Cc2cc(OC)c(OC)c(OC)c2)CSC3)cc1` were, in that order, 0.392 µM, 0.294 µM and > 100 µM.
`CCCCC(CC)C(=O)N1CCN(C(CC)c2nc3ccccc3c(=O)n2C)CC1` (configuration not stated): the figures for the EC50 in data set [1] and in data set [3] were 0.374 µM and 0.294 µM, respectively. Moreover, the CC50 in data set [2] is > 100 µM.
On to `CN(C)CCN1CCN(c2cccc(-c3cccc4cccnc34)n2)CC1`, for which the figures for the EC50 in data set [1] and in data set [3] were 0.018 µM and 0.0552 µM, respectively. Further, in data set [2], the cytotoxic concentration (CC50) amounted to 18.8 µM.
For `CCOC(=O)c1ccc(OCC2c3cc(OC)c(OC)cc3CCN2C(=O)Nc2ccc(Cl)cc2)cc1` (configuration not stated), the EC50 in data set [1] is 1.97 µM; in data set [3] it was 0.292 µM. Moreover, the CC50 in data set [2] was > 100 µM.
As to `Oc1ccc(C2Nc3ccc4ccccc4c3C3C=CCC32)cc1` (configuration not stated), the EC50 in data set [1] was found to be 0.812 µM; in data set [3], 0.292 µM. For the same compound, the CC50 in data set [2] is > 100 µM.
The corresponding values for `Clc1ccc(C[n+]2cc(-c3ccccc3)n3c2CCC3)cc1Cl` are 0.499 µM, 0.158 µM and > 55.7 µM.
With `Cc1cc(C)n(CC(O)Cn2c3ccc(I)cc3c3cc(I)ccc32)n1` (configuration not stated), the EC50 in data set [1] stood at 1.19 µM; in data set [3], 0.296 µM. For the same compound, the CC50 in data set [2] is > 100 µM.
Consider `OC(CN1CCN(c2ccnc3cc(Cl)ccc23)CC1)CN1CCN(c2ccnc3cc(Cl)ccc23)CC1`, for which the values for the EC50 in data set [1] and in data set [3] were 0.0856 µM and 0.0296 µM, respectively. Also, the CC50 in data set [2] is > 10 µM.
The like results for `CCOC(=O)c1ccc(N(C(=O)Cc2c[nH]c3ccccc23)C(C(=O)NC2CCCCC2)c2cccnc2)cc1` (configuration not stated) were, in that order, 0.281 µM, 0.295 µM and > 100 µM.
The corresponding values for `CCOc1cc(-c2nc3c(=O)n(C)c(=O)nc-3n(C)n2)ccc1OC(C)C` are 0.333 µM, 0.0293 µM and > 10 µM.
`Cc1ccc(C2CC(C(F)(F)F)n3ncc(C(=O)Nc4ccc(OC(F)(F)F)cc4)c3N2)cc1` (configuration not stated): the EC50 is 0.282 µM in data set [1] and 0.293 µM in data set [3]. Further, in data set [2], the CC50 is > 100 µM.
Regarding `CC(=O)N(C1=C(N2CCCC2)C(=O)c2ccccc2C1=O)c1ccc(F)cc1`, the concentration for a half-maximal effect (EC50) in data set [1] stood at 0.646 µM; in data set [3], 0.0759 µM. In addition, half-maximal cytotoxicity in data set [2] (CC50) was put at 25.8 µM.
The like results for `C[n+]1ccn(-c2ccc(C(=O)c3ccc(-n4cc[n+](C)c4)cc3)cc2)c1` were, in that order, 0.0335 µM, 0.0294 µM and > 10 µM.
The corresponding values for `CCCc1cc(O)c2c3c(c(=O)oc2c1)CN(C)CC3` are 0.554 µM, 0.294 µM and > 100 µM.
The corresponding values for `COC(=O)C1=C(C)N/C(=C\c2cc(C)n(-c3ccccc3C(F)(F)F)c2C)C1=O` are 0.0224 µM, 0.0299 µM and > 10 µM.
In the case of `CCCCCCc1cc(O)c2c3c(c(=O)oc2c1)CCC(C)C3` (configuration not stated), the EC50 in data set [1] came out at 0.364 µM; in data set [3], 0.297 µM. For the same compound, in data set [2], the CC50 is > 100 µM.
The corresponding values for `CCN(CC)c1nc(NN=Cc2cccc([N+](=O)[O-])c2OC)nc(Nc2ccccc2)n1` are 0.244 µM, 0.294 µM and > 100 µM.
Turning to `COc1ccc2c(c1)C=C([C@@H]1C[C@H]3CN(c4ccccc4)C(=O)[C@]34CCCN14)CO2`, the results for the EC50 in data set [1] and in data set [3] were 0.588 µM and 0.289 µM, respectively. The CC50 in data set [2] was > 100 µM.
The corresponding values for `CCOc1cc(C2CC(=O)NC3=C2C(=O)CC(c2ccc(OC)cc2)C3)cc(Cl)c1O` (configuration not stated) are 0.612 µM, 0.285 µM and > 100 µM.
Regarding `Clc1ccc(-c2c[n+](CCc3ccccc3)c3n2CCC3)cc1`, the results for the EC50 in data set [1] and in data set [3] were 0.38 µM and 0.299 µM, respectively. Also, the CC50 in data set [2] was > 100 µM.
On to `Cc1ccccc1Cn1c(=N)n(CC(O)c2ccc(Cl)c(Cl)c2)c2ccccc21` (configuration not stated), for which the EC50 is 0.135 µM in data set [1] and 0.0384 µM in data set [3]. This compound showed a CC50 in data set [2] of 13.3 µM.
